Calls of active or inactive are those of the source. The rule behind the calls is not given here.
Experiments:
[1] = Antiproliferative activity against human EAhy926 cells assessed as reduction in cell viability measured after 48 hrs by MTT assay; format: functional, cell-based; conditions: EA.hy 926, 48 h
[2] = Solubility of compound in water; format: physicochemical
[3] = organism: Gallus gallus; experiment: Antiangiogenic activity in chicken chorioallantoic membrane at 30 uM/disc after 48 hrs by microscopic analysis; format: functional
[4] = system: EA.hy 926; experiment: Antiangiogenic activity in human EAhy926 cells assessed as inhibition of VEGF-induced cell migration measured after 24 hrs by wound healing assay relative to control; format: functional, cell-based
[5] = system: EA.hy 926; experiment: Antiangiogenic activity in human EAhy926 cells assessed as inhibition of VEGF-induced capillary-like tube formation on matrigel after 24 hrs by phase-contrast microscopy; format: functional, cell-based

CCn1c2ccccc2c2cc(CNCCCCCCNCc3cc4c5ccccc5n(CC)c4cn3)ncc21.Cl
IC50 [1]: 2.59 µM
solubility [2]: > 10000 µg/mL

CCn1c2ccccc2c2cc(CNCCCCNCc3cc4c5ccccc5n(CC)c4cn3)ncc21.Cl
IC50 [1]: > 10 µM
solubility [2]: > 10000 µg/mL

CCCCn1c2ccccc2c2cc(CNCCCCCCNCc3cc4c5ccccc5n(CCCC)c4cn3)ncc21.Cl
IC50 [1]: 4.82 µM
solubility [2]: > 10000 µg/mL

CC(C)n1c2ccccc2c2cc(CNCCCCCCNCc3cc4c5ccccc5n(C(C)C)c4cn3)ncc21.Cl
IC50 [1]: 2.74 µM
solubility [2]: > 10000 µg/mL

CCCCCCCCn1c2ccccc2c2cc(CNCCCCCNCc3cc4c5ccccc5n(CCCCCCCC)c4cn3)ncc21.Cl
IC50 [1]: 3.77 µM
solubility [2]: > 10000 µg/mL

Cl.c1ccc(Cn2c3ccccc3c3cc(CNCCCNCc4cc5c6ccccc6n(Cc6ccccc6)c5cn4)ncc32)cc1
IC50 [1]: > 10 µM
solubility [2]: > 10000 µg/mL

Cl.Clc1cccc(Cn2c3ccccc3c3cc(CNCCCCCNCc4cc5c6ccccc6n(Cc6cccc(Cl)c6)c5cn4)ncc32)c1
IC50 [1]: 1.06 to 1.1 µM
solubility [2]: > 10000 µg/mL
Activity [3]: Active
inhibition [4]: Dose-dependent effect
inhibition [5]: Dose-dependent effect

Cl.c1ccc(Cn2c3ccccc3c3cc(CNCCCCCCNCc4cc5c6ccccc6n(Cc6ccccc6)c5cn4)ncc32)cc1
IC50 [1]: 4.76 µM
solubility [2]: > 10000 µg/mL

Cl.c1ccc(CCCn2c3ccccc3c3cc(CNCCCCCCNCc4cc5c6ccccc6n(CCCc6ccccc6)c5cn4)ncc32)cc1
IC50 [1]: 2.35 µM
solubility [2]: > 10000 µg/mL

CC(C)n1c2ccccc2c2cc(CNCCCCNCc3cc4c5ccccc5n(C(C)C)c4cn3)ncc21.Cl
IC50 [1]: 2.48 µM
solubility [2]: > 10000 µg/mL

Cl.Fc1ccc(Cn2c3ccccc3c3cc(CNCCCCCNCc4cc5c6ccccc6n(Cc6ccc(F)cc6)c5cn4)ncc32)cc1
IC50 [1]: 4.14 µM
solubility [2]: > 10000 µg/mL

Cl.Clc1cccc(Cn2c3ccccc3c3cc(CNCCCCCCNCc4cc5c6ccccc6n(Cc6cccc(Cl)c6)c5cn4)ncc32)c1
IC50 [1]: 2.98 µM
solubility [2]: > 10000 µg/mL

CCCCCCCCn1c2ccccc2c2cc(CNCCCCNCc3cc4c5ccccc5n(CCCCCCCC)c4cn3)ncc21.Cl
IC50 [1]: 4.86 µM
solubility [2]: > 10000 µg/mL

Cl.Cn1c2ccccc2c2cc(CNCCCCCCNCc3cc4c5ccccc5n(C)c4cn3)ncc21
IC50 [1]: 2.58 µM
solubility [2]: > 10000 µg/mL

Cl.Fc1ccc(Cn2c3ccccc3c3cc(CNCCCCCCNCc4cc5c6ccccc6n(Cc6ccc(F)cc6)c5cn4)ncc32)cc1
IC50 [1]: 4.08 µM
solubility [2]: > 10000 µg/mL

Cl.c1ccc(CCCn2c3ccccc3c3cc(CNCCCCNCc4cc5c6ccccc6n(CCCc6ccccc6)c5cn4)ncc32)cc1
IC50 [1]: 4.18 µM
solubility [2]: > 10000 µg/mL

Cc1nc(CNCCCCNCc2cc3c4ccccc4n(Cc4cccc(Cl)c4)c3c(C)n2)cc2c3ccccc3n(Cc3cccc(Cl)c3)c12.Cl
IC50 [1]: 4.81 µM
solubility [2]: > 10000 µg/mL

COc1ccc(/C=C\c2cc(OC)c(OC)c(OC)c2)cc1OP(=O)(O)O [FOSBRETABULIN]
IC50 [1]: 6.4 µM

CC(C)Cn1c2ccccc2c2cc(CNCCCCNCc3cc4c5ccccc5n(CC(C)C)c4cn3)ncc21.Cl
IC50 [1]: 3.08 µM
solubility [2]: > 10000 µg/mL

CCCCn1c2ccccc2c2cc(CNCCCCNCc3cc4c5ccccc5n(CCCC)c4cn3)ncc21.Cl
IC50 [1]: 2.17 µM
solubility [2]: > 10000 µg/mL

Cc1nc(CNCCCCCCNCc2cc3c4ccccc4n(Cc4ccccc4)c3c(C)n2)cc2c3ccccc3n(Cc3ccccc3)c12.Cl
IC50 [1]: 1.39 µM
solubility [2]: > 10000 µg/mL

CCCCn1c2ccccc2c2cc(CNCCCNCc3cc4c5ccccc5n(CCCC)c4cn3)ncc21.Cl
IC50 [1]: > 10 µM
solubility [2]: > 10000 µg/mL

CCCCn1c2ccccc2c2cc(CNCCCCCCNCc3cc4c5ccccc5n(CCCC)c4c(C)n3)nc(C)c21.Cl
IC50 [1]: 2.74 µM
solubility [2]: > 10000 µg/mL

Cc1nc(CNCCCCCCNCc2cc3c4ccccc4n(CC(C)C)c3c(C)n2)cc2c3ccccc3n(CC(C)C)c12.Cl
IC50 [1]: 2.68 µM
solubility [2]: > 10000 µg/mL

CC(C)Cn1c2ccccc2c2cc(CNCCCCCCNCc3cc4c5ccccc5n(CC(C)C)c4cn3)ncc21.Cl
IC50 [1]: 6.3 µM
solubility [2]: > 10000 µg/mL

Cl.Clc1cccc(Cn2c3ccccc3c3cc(CNCCCCNCc4cc5c6ccccc6n(Cc6cccc(Cl)c6)c5cn4)ncc32)c1
IC50 [1]: 6.86 µM
solubility [2]: > 10000 µg/mL

Cc1nc(CNCCCCNCc2cc3c4ccccc4n(CCCc4ccccc4)c3c(C)n2)cc2c3ccccc3n(CCCc3ccccc3)c12.Cl
IC50 [1]: 2.11 µM
solubility [2]: > 10000 µg/mL
